These results are taken from patent US12612661B2, “Compositions and methods for assessing the efficacy of inhibitors of neurotransmitter transporters” (DENOVO BIOPHARMA LLC, priority 2020, dated 2026).

The conditions of data set [1]: phase 2 clinical studies; cited from earlier work.
The next data set concerns the target T1, HEK293/hDAT cells (Homo sapiens, UniProt Q01959).
T1 construct: expressed in transfected cells; host or cells: HEK293/hDAT cells
Briefly: Cell-based monoamine reuptake inhibition, [3H]DA uptake. The note with it: IC50 only in FIG. 1A table. An excerpt: (§1) FIG. 1 depicts exemplary DB104 structure, preclinical result, and clinical trial design. […] In vitro Binding Result: Competition binding experiments were utilized to determine the in vitro binding potencies (IC50 values) of BMS-820836 for SERT, DAT, and NET. Membranes prepared from human embryonic kidney (HEK) cell lines overexpressing each transporter were employed in the assays. Radioligands were used at their respective affinity constant (Kd) concentrations for each transporter to enable direct comparisons of the IC50 values between assays. Monoamine Reupdate inhibition: Cell-based assays were used to determine the ability of BMS-820836 to inhibit reuptake of 3H-labeled dopamine ([^3H]DA), norepinephrine ([^3H]NE), and serotonin ([^3H]5-HT).

Data set [2] deals with patients with MDD. Briefly: Phase 2b efficacy studies CN162006 and CN162007, MADRS total score, analysed by rs12217173 genotype. The class given is in vivo, human. How it is done: The Phase 2b program for DB104 consists of two efficacy studies (CN162006 and CN162007), and both efficacy studies have a similar design and include patients with MDD. CN162006 is flexible-dose study where patients with a history of inadequate response to at least one but less than four antidepressants and one prospective treatment (duloxetine) are switched to flexibly-dosed DB104 (0.5-2 mg/d) or remain on duloxetine (Bhagwagar Z. et al. 2015). CN162007 is a fixed dose, dose-response study where patients with a history of inadequate response to at least one but less than four antidepressants and one prospective treatment (duloxetine/escitalopram) are switched to fixed doses of DB104 (0.25, 0.5, 1, 2 mg/day) or remain on duloxetine/escitalopram (FIG. 1B and 1C). […] (Bhagwagar Z. et al. 2015.)
We were provided with a large number of whole blood samples that were collected from the above phase II clinical trials (CN162-006 and CN162-007), and these samples corresponded to 233 unique patients that had received DB104 and completed the trial adequately to measure their response to treatment. Thus, germline DNA samples extracted from blood of patients enrolled in these two trials were used to identify pharmacogenetic biomarker for DB104. For the discovery phase, 188 samples were selected, and the remaining 45 samples would be left for validating any potential SNPs using PCR. The discover and validation datasets were balanced for race and dose/trial number. In discovery phase, 188 samples from DB104 treatment group were genotyped using the Illumina 4.5 million whole genome SNP arrays. Two (2) out of the 188 samples failed QC and were excluded from the genome-wide analysis but added to the validation set. From this genome wide screen from 186 samples, we have identified SNP rs12217173 which has a p-value of 6.609×10^−8, which is very close to genome-wide significance cut-off of 5×10^−8, especially given the limited sample size of this study.
To confirm the finding of rs12217173 as possible pharmacogenetic biomarker to predict DB104 efficacy, we next measured its genotype with Taqman SNP assay using the validation set which consists 47 patients, including two additional samples failed in genome-wide scan QC but passed real time PCR QC. […] Thus, patients with GG genotype were defined as the responders and patients carrying AA or AG genotype are defined as non-responders to DB104 treatment.
To examine whether rs12217173 is merely a prognostic biomarker for the disease instead of specific pharmacogenomic biomarker for DB104, DNA samples from 182 patients from the control group treated with duloxetine/escitalopram were genotyped using the Taqman SNP assays. […] Therefore, rs12217173 associated improvement in MADRS is related to DB104 treatment, and rs12217173 appears to be a pharmacogenomics biomarker for predicting DB104's anti-depression activity, and thus it is named as DGM4 (Denovo Genomic Marker 4).
CN162006 is flexible-dose study where DB104 doses ranged from 0.5-2 mg/d, and CN162007 is a fixed dose, dose-response study where patients were treated with doses of DB104 at 0.25, 0.5, 1, or 2 mg/day. Due to the limitation on samples available for the genome-wide study, the analysis described in previous section was not treating patients taking different doses of DB104 differently. In order to refine our analysis, we have further evaluated the effect of DB104 dose in these two studies. In CN162006, the mean and median average dose per day is 1.5 mg, and 94% patients received doses of 1 to 2 mg per day.

Another data set concerns the target T2, DAT (Homo sapiens, UniProt Q01959).
T2 construct: expressed in transfected cells; host or cells: HEK cell line overexpressing the transporter; membranes
Briefly: In vitro competition binding, membranes from HEK cell lines overexpressing DAT. The following applies: radioligand at its Kd concentration; IC50 only in FIG. 1A table.
From the text: as §1

For the next data set, the target named is T3, SERT (Homo sapiens, UniProt P31645).
T3 construct: expressed in transfected cells; host or cells: HEK cell line overexpressing the transporter; membranes
Briefly: In vitro competition binding, membranes from HEK cell lines overexpressing SERT. The note with it: radioligand at its Kd concentration; IC50 only in FIG. 1A table.
From the text: as §1

In data set [3] the test system is patients with MDD. The following applies: overall population, CN162006 and CN162007; cited from earlier work.
A further data set deals with T4, NET (Homo sapiens, UniProt P23975).
T4 construct: expressed in transfected cells; host or cells: HEK cell line overexpressing the transporter; membranes
Briefly: In vitro competition binding, membranes from HEK cell lines overexpressing NET. The following applies: radioligand at its Kd concentration; IC50 only in FIG. 1A table.
From the text: as §1

The subject of a further data set is C. elegans. The following applies: oxidative stress; ANK3/unc-44 expression necessary; cited from earlier work.
Setting [4] is: GG genotype, week 5 and 6, excluding 0.25 and 0.5 mg.

T4 sequence (P23975 whole entry): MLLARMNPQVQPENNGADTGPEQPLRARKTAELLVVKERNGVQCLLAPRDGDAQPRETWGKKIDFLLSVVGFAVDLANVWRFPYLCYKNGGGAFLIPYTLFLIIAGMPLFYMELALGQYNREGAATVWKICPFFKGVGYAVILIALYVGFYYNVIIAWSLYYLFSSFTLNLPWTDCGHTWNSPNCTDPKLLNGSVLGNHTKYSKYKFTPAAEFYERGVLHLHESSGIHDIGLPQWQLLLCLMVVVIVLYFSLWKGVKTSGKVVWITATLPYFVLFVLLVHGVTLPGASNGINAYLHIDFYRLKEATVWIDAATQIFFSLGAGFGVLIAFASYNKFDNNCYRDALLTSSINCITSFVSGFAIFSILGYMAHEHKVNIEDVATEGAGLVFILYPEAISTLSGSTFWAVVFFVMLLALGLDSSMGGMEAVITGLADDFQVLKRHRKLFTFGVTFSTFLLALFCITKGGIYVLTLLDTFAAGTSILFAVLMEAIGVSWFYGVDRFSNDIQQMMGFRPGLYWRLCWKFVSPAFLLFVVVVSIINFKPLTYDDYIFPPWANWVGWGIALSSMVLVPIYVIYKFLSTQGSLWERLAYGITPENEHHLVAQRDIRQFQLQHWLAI
T1 sequence (Q01959 whole entry): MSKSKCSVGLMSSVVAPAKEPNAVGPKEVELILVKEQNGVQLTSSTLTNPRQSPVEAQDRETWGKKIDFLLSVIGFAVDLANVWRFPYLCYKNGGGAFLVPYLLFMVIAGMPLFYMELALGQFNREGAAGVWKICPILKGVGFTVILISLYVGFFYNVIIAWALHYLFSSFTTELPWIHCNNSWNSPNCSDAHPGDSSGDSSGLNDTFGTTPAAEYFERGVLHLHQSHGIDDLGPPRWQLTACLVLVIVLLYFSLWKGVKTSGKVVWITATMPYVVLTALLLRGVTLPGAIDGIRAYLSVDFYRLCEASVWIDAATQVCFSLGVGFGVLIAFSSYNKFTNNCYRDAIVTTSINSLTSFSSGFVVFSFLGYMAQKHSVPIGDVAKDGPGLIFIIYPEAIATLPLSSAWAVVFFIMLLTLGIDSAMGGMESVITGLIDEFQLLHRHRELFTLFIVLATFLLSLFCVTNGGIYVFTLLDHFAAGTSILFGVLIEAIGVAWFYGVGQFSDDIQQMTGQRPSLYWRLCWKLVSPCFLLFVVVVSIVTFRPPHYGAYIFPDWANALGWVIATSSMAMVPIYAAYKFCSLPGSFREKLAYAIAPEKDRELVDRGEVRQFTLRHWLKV
T2 sequence (Q01959 whole entry): as above
T3 sequence (P31645 whole entry): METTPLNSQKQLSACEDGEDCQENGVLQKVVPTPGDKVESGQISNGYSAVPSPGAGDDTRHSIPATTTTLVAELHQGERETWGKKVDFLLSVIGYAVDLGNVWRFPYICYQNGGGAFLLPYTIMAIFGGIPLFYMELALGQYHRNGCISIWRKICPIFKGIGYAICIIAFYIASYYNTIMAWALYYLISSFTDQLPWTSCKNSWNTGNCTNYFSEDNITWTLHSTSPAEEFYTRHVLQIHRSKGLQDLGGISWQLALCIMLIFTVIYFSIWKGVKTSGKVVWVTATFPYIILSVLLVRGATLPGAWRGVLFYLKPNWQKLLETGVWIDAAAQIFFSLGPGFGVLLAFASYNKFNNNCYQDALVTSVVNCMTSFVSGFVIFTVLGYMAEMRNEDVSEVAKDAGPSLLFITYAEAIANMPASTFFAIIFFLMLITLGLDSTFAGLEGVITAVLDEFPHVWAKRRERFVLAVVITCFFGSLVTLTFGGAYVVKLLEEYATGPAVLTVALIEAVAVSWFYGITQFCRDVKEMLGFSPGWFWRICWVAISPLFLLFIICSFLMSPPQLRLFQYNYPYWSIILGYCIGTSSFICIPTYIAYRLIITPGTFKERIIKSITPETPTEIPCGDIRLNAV

With `CN1Cc2cc(-c3ccc(N)nn3)ccc2[C@H](c2ccc3ccccc3c2)C1` [DB104, liafensine], in data set [1], the “discontinuations due to adverse events” value is “no evidence of dose-dependent discontinuations due to adverse events” and the tolerability result is reported as “well tolerated”. Also, the “inhibition of uptake of [3H]DA” value at HEK293/hDAT cells is “potently and completely inhibited”. The “efficacy by dose in patients carrying GG genotype” value in the data set on patients with MDD [2] (CN162007, 0.25, 0.5, 1, 2 mg/day) is 1 mg and 2 mg group exhibited similar efficacy, and both are much better than 0.25 mg and 0.5 mg group. Also, in the data set with patients with MDD [2] (setting [4]), the “MADRS Remission Rate vs SOC treatment group” value is given as “statistical significance”, the “MADRS Response Rate vs SOC treatment group” value is given as “statistical significance” and the “MADRS total score reduction vs SOC treatment group” value is “statistical significance”. The “MADRS score change, GG vs AA or AG genotype” value in the data set with patients with MDD [2] (discovery and validation datasets combined) was “much improved MADRS score change”. Further, the “improvement on MADRS change from the baseline, GG vs AA or AG genotype and vs standard of care” value in the data set on patients with MDD [2] (discovery set (186 patients), GG allele of rs12217173) is on record as “much better improvement”. Moreover, the “MADRS, DB104 treatment group vs SOC treatment group” value in the data set on patients with MDD [2] (pooled 006 and 007 at 1 mg and 2 mg, all genotypes, any time point) is listed as “no significant differences”. In addition, in the data set with patients with MDD [2] (validation set (47 patients), DB104-treated patients carrying GG at rs12217173), the “MADRS score reduction from the baseline” value is roughly 16 points. Moreover, the “MADRS score reduction from the baseline” value in the data set with patients with MDD [2] (validation set, DB104-treated patients carrying AA or AG genotype) is given as “eight”. In addition, the “saturation of DAT binding sites in competition binding” value at DAT was “completely saturated”. In addition, on SERT, the “saturation of SERT binding sites in competition binding” value was “completely saturated”. Further, the “MADRS total score change from baseline at week 6 (primary endpoint), DB104 vs. continuation of duloxetine/escitalopram” value in the data set with patients with MDD [3] was “neither study demonstrated significant improvement”. Also, on NET, the “saturation of NET binding sites in competition binding” value is on record as “completely saturated”.
`CN1CCN2c3ccccc3Cc3ccccc3C2C1` (centres unmarked) [mianserin]: the lifespan result in the data set with C. elegans is “increase lifespan”.
